Experimental findings from US20230218654A1, “COMPOSITIONS AND METHODS FOR TREATING HYPERGLYCEMIA IN TYPE-2 DIABETES” (The Board of Regents of the university of Oklahoma, priority 2020, published 2023) are described below.

In experiment [1] the test system is AML12 mouse hepatocytes. The experiment is described as follows: Western blot of insulin signaling and cullin neddylation in AML12 cells. Type of experiment: cell-based. How it is done:
MLN4924 increases IRS protein and AKT activation in the presence of insulin. Mouse AML 12 hepatocytes were serum starved for 16 h. Cells were then pre-treated with MLN4924 for 1 h followed by 100 nM insulin stimulation for 4 h. Western blot was then performed to evaluate insulin signaling activation.
AML 12 cells were serum starved for 16 h. Cells were then pre-treated with 500 nM MLN4924 or vehicle (DMSO) for 1 h, followed by 100 µg/ml cycloheximide (CHX) and 100 nM insulin treatment.
AML12 cells were serum starved for 16 h. Cells were then pre-treated with 500 nM MLN4924 for 1 h followed by 100 nM insulin stimulation in time course.
FIG. 18A is a Western blot analysis showing that MLN4924 enhances hepatocyte insulin responsiveness (signaling) by delaying feedback IRS degradation. AML12 cells were serum starved for 16 h. Cells were then pre-treated with MLN4924 for 1 h followed by insulin stimulation for 4 h.
FIG. 18D is a Western blot analysis of insulin signaling in AML12 cells serum starved for 16 h, then pre-treated with 500 nM MLN4924 for 1 h followed by 100 nM insulin stimulation in time course.
FIG. 18E is a Western blot analysis of AML12 cells serum starved for 16 h then pre-treated with 500 nM MLN4924 or vehicle (DMSO) for 1 h, followed by 100 µg/ml cycloheximide (CHX) and 100 nM insulin treatment. Cells were collected at the indicated time for Western blotting.
FIG. 18F is a Western blot analysis of insulin signaling in AML12 cells serum starved for 16 h then pre-treated with 100 nM rapamycin and 500 nM MLN4924 as indicated for 1 h followed by additional 2 h incubation in the presence or absence of 100 nM insulin. Blots are representative of 2-4 independent experiments.
FIG. 20 is a Western blot analysis showing that MLN4924 enhances hepatocyte insulin responsiveness in cells treated with wortmannin by delaying feedback IRS degradation (related to FIG. 18A). AML12 cells were serum starved for 16 h then pre-treated with 1 µM wortmannin (Wort) and 500 nM MLN4924 as indicated for 1 h followed by additional 2 h incubation in the presence or absence of 100 nM insulin. Blots are representative of 2 independent experiments.
FIG. 21 is a Western blot analysis showing that MLN4924 enhances hepatocyte insulin responsiveness in cells treated with Torin 1 by delaying feedback IRS degradation (related to FIG. 18A). AML12 cells were serum starved for 16 h then pre-treated with 250 nM Torin1 and 500 nM MLN4924 as indicated for 1 h followed by additional 2 h incubation in the presence or absence of 100 nM insulin. Blots are representative of 2 independent experiments.
(§1) MLN4924 and TAS4464 were purchased from MedChemExpress (MCE, Monmouth Junction, NJ). For cell treatment, MLN4924 and TAS4464 were dissolved in DMSO. Cells were serum starved overnight and then treated with MLN4924, TAS4464 and/or insulin as indicated. For injection in mice, MLN4924 and TAS4464 were first dissolved in DMSO, which was further suspended in 10% (2-hydroxypropyl)-β-cyclodextrin (Sigma, St. Louis, MO). The final solution contains 1% DMSO. The subcutaneous injection volume is 200 µl/mouse.
Protein lysates were prepared in RIPA buffer containing 1% SDS and protease inhibitors on ice for 1 h followed by brief sonication. After centrifugation, supernatant was used for SDS-PAGE and immunoblotting.
AML12 cells were a generous gift from Dr. Yanqiao Zhang (Northeast Ohio Medical University). AML12 cells were cultured in DMEM medium supplemented with a mixture of insulin-transferrin-selenium (#41400-045, ThermoFisher, Waltham, MA). For experiments, cells were cultured in serum free medium overnight before various treatments were initiated. The siGENOME SMARTpool siRNA and siControl were purchased from Dharmacon, Inc. (Lafayette, CO). The siRNA was transfected with Lipofectamine RNAiMAX reagent in a final concentration of 25 nM recommended by the manufacturer. […]
(Immunoblotting shows a protein as a band on a membrane.)

For experiment [2], the system named is male C57BL6/J mice. The experiment can be described thus: Plasma/serum insulin and c-peptide after acute neddylation inhibitor treatment. The conditions noted are these: 6 h fast. Type of experiment: in vivo. How it is done:
Male C57BL6/J mice on chow diet were treated with 45 mg/kg TAS4464 via subcutaneous injection at 9 am. Mice were then fasted for 6 hours and serum insulin was measured. Blood samples were collected at 0 min and 120 min and used for insulin measurement (n=4). Left-hand bars are controls. Right-hand bars are TAS4464 treatments.
Male C57BL6/J mice on Western diet were treated with 15 mg/kg TAS4464 via subcutaneous injection at 9 am. Mice were then fasted for 6 hours and serum c-peptide were measured (n=5).
Male C57BL6/J mice on chow diet were treated with 60 mg/kg MLN4924 via subcutaneous injection at 9 am. Mice were then fasted for 6 hours and serum c-peptide were measured (n=8)
Aspartate aminotransferase (AST) and alanine aminotransferase (ALT) assay kits were purchased from Pointe Scientific (Canton, MI). Free fatty acid assay kit was purchased from Biovision Inc. (Milpitas, CA). Insulin ELISA kit was purchased from Crystal Chem Inc. (Elk Grove Village, IL).
A hyperinsulinemic-euglycemic clamp study was conducted in which obese mice were treated with vehicle or MLN4924.

Experiment [3] deals with insulin resistant and obese male C57BL/6J mice. The experiment is described as follows: Acute TAS4464 treatment of obese, insulin resistant WD-fed mice. Type of experiment: in vivo. The conditions noted are these: WD 8 weeks. On the procedure:
Mice were fed WD for 8 weeks to render them insulin resistant and obese. Mice were then treated with 45 mg/kg TAS4464 or vehicle once at 5 pm on day 1 and once at 9 am on day 2. Body weight and blood glucose were measured at 3 pm on day 2.
Mice were fed WD for 8 weeks, after which the mice were injected with vehicle or 45 mg/kg TAS4464 subcutaneously at 5 pm on day 1 and 9 am on day 2. Mice were fasted from 9 am to 3 pm on day 2 and blood glucose was measured. Results are expressed as mean ± SEM. […]. “*”, p < 0.05, vs. Vehicle.
as §1
Treatment of obese mice with TASS4464 reduced the blood glucose to ~100 mg/dl.

[4] abbreviates: 1 µM wortmannin or 250 nM Torin1, 100 nM insulin.

In the case of `CCC(=O)N1CCN(c2ccc(-n3c(=O)ccc4cnc5ccc(-c6cnc7ccccc7c6)cc5c43)cc2C(F)(F)F)CC1` [Torin 1], in experiment [1] (setting [4]), the “downstream AKT activation” value was “decreased downstream AKT activation” and the “downstream mTOR activation” value is given as “blocked downstream mTOR activation”.

On to `CCOc1cccc(F)c1C#Cc1cn([C@@H]2O[C@H](CNS(N)(=O)=O)[C@@H](O)[C@H]2O)c2ncnc(N)c12` [TAS4464, 7H-Pyrrolo[2,3-d]pyrimidin-4-amine, 7-[5-[(aminosulfonyl)amino]-5-deoxy-beta-D-ribofuranosyl]-5-[2-(2-ethoxy-6-fluorophenyl)ethynyl]-], for which the serum c-peptide concentration entry in experiment [2] (Western diet, 15 mg/kg SQ at 9 am) is “elevated serum c-peptide concentration”. Moreover, in experiment [2] (chow diet, 45 mg/kg SQ at 9 am), the serum insulin concentration entry was “increases serum insulin concentration”. For the same compound, in experiment [1] (TAS4464 increasing doses, 5 h), the IRS protein result is recorded as “increased IRS protein”, the “neddylated cullin 1” value was “significantly inhibited” and the total neddylated cullins entry is recorded as “significantly inhibited”. For the same compound, in experiment [3] (45 mg/kg SQ at 5 pm day 1 and 9 am day 2), the “blood glucose after 6-hour fast” value is ~ 100 mg/dl. The “blood glucose (in words)” value in experiment [3] (45 mg/kg SQ twice, 6 h fast) is given as “acutely reduced blood glucose”.
